Measurements as given in patent publication US11534425B2, “Compounds for the treatment of acute organ injury” (priority 2018, dated 2022).
Like-named read-outs stand apart in the source and are kept apart here.

Assays:
[1] = system: Primary rat cortical neurons; test: Staurosporine (STS) injury assay, cell viability by CELLTITER-BLUE; format: cell-based
Description: Primary rat cortical neurons were cultured on poly-D-lysine coated 96-well plates at a density of 1×10^5/well in Neurobasal medium+B27 supplement. 1/2 media swaps were given every 3 d. ARA-c was added to the medium on day in vitro (DIV) 3 to inhibit glial proliferation. On DIV9, maintenance media (2/3) was collected from plates and mixed with fresh media (1/3) to obtain ˜67% conditioned medium (CM). Staurosporine (STS) and drugs were prepared in 100% DMSO and diluted in CM. Uninjured controls received an equal concentration of DMSO. Primary cortical neurons were incubated with +STS+drugs for in 100 μL/well CM. Cell viability was determined 24 h later (DIV10) by CELLTITER-BLUE® (n=10 replicates/group). […] Data were analyzed by 1-Way-ANOVA and Newman-Keuls Multiple Comparison Test. Graphs show Mean+SEM. Data are significant at p<0.05. Conclusion: NSC74429 is a potent a neuroprotectant as determined by the STS cell death assay.

[2] = system: pAKT473; settings: primary rat cortical neurons, Jackson et al., 2013; cited from earlier work
[3] = system: C57BL/6 mice; test: Adult mouse controlled cortical impact plus hemorrhagic shock (CCI+HS), CA1/CA3 cell counts; format: in vivo
Text: Traumatic brain injury (TBI) compromises the BBB, making it easier for drugs to reach injured tissue, and TBI is also worsened by secondary injuries such as hypotension due to profound blood loss (HS). Adult male ˜28 g C57BL/6 mice were anesthetized with isoflurane via a nose cone (4% induction/2% maintenance on 70% N2O/30% O2), given preparatory surgery, and sequentially injured by (1) a CCI-TBI and (2) HS, as reported by our group (Jackson et al., 2015). In brief, mice were given a moderate CCI above the left parietal cortex (impact tip velocity 5 m/s and cortical depth 1.0 mm). 5 min later, HS was initiated by withdrawing blood until mean arterial pressure (MAP) decreased from ˜90 mmHG (normal) to ˜25-27 mmHG (hypotensive). HS was maintained for 35 min. Mice were then volume resuscitated using lactated ringer's (LR) solution for 90 min to mimic pre-hospital care (targeted MAP of ˜70 mmHG). Finally, shed blood was returned over 15 min to mimic definitive hospital care and MAP returned to normal. (A-D) In a first study we measured the acute neuroprotective effects of NSC74429 on hippocampal injury 48 h after CCI+HS. Mice were given an intravenous bolus injection of vehicle (5% DMSO in D5W) or NSC74429 (1 mg/kg or 3 mg/kg) immediately after the hospital phase (i.e. […] after the initial CCI-injury). A second intraperitoneal injection was administered 24 h later, and brains collected for CA1/CA3 cell counts 48 h post-injury. One animal died in the vehicle-injury group and four animals died in the 3 mg/kg NSC74429 group prior to tissue collection. (A and B) Scatter plots show CA1/CA3 cell counts in surviving animals. 1 mg/kg NSC74429 was neuroprotective. Hippocampal survival bifurcated in the 3 mg/kg high-dose group; some animals had improved CA1/CA3 survival vs. vehicle-injury whereas others were clearly made worse. Given that mortality was also higher with 3 mg/kg NSC74429 (4 vs. 1), we eliminated the high-dose group from further statistical analysis. (C and D) Statistical analysis of CA1/CA3 cell counts. […] (E and F) A second study was done to test if NSC74429 neuroprotection is sustained chronically by 7 d post-injury. Only the low dose (1 mg/kg) was tested. Mice were injured as described above, given intravenous injection of vehicle or 1 mg/kg drug immediately following the hospital phase of HS, supplemental injections administered intraperitoneally at 24 h, 48 h, and 72 h post-injury, and brains collected for histology 7 d post-injury. […] Data were analyzed by 1-Way-ANOVA and Newman-Keuls Multiple Comparison Test. Graphs show Mean+SEM. Data are significant at p<0.05. Injured rats were randomized to treatment group, and drugs provided to a technician in de-identified coded vials. The technician that administered drug injections, and the technician that analyzed histology, were blinded to treatment group. Conclusion: NSC74429 is neuroprotective in the acute and chronic phase after injury in a severe trauma model.

[4] = system: Primary rat cortical neurons; test: Glutamate-excitotoxicity assay, cell viability by CELLTITER-BLUE; format: cell-based; settings: 10 μM glutamic acid 5 min, viability 24 h later
Description: (§1) Primary rat cortical neurons were cultured on poly-D-lysine coated 96-well plates at a density of 1×10^5/well in Neurobasal medium+B27 supplement. 1/2 media swaps were given every 3 d. ARA-c was added to the maintenance medium on day in vitro (DIV) 3 to inhibit glial proliferation. (A) On DIV9, maintenance media (2/3) was collected from plates and mixed with fresh media (1/3) to obtain 67% conditioned medium (CM). Cells were washed once with balanced salt solution (BSS supplemented with 5 mM glucose; 200 μL/well). BSS was replaced with BSS containing 10 μM glutamic acid, and incubated on cells 5 min to induce excitotoxicity. Glutamic acid/BSS was replaced with 100 μL/well CM, containing DMSO (control) or drugs, and returned to the incubator for 24 h (n=10 replicates/group). (B) DIV9 cells were washed once with BSS, injured 35 min with 40 μM H2O2 dissolved in BSS, and replaced with 100 μL/well CM containing DMSO (control) or drugs. Cell viability was determined 24 h later (DIV10) by addition of 20 μL/well CELLTITER-BLUE® (n=10 replicates/group). Data were analyzed by 1-Way-ANOVA and Newman-Keuls Multiple Comparison Test. Graphs show Mean+SEM. Data are significant at p<0.05. Excitotoxicity is a major cause of neuronal death across the spectrum of CNS injury.

[5] = system: pAKT473; test: pAKT473 levels in vivo, injured hippocampus after ACA; settings: rat ACA, 1 or 3 mg/kg, iv 5 min after ROSC and ip 24 h post-injury, tissue 1 h after final injection
Description: A separate cohort of rats was used to generate hippocampal tissue homogenates. Rats were given ACA and subsequently treated with (a) vehicle, (b) 1 mg/kg NSC74429, or (c) 3 mg/kg NSC74429. Treatments were administered by iv bolus injection 5 min after ROSC, and a 2nd ip bolus injection 24 h post-injury. Shams were administered vehicle injections and preparatory surgery but were not injured. Rats were euthanized 1 h following the final drug injection and brain tissue collected for protein analysis. […] Data were analyzed by 1-Way-ANOVA and Newman-Keuls Multiple Comparison Test. Injured rats were randomized to treatment group, and drugs provided to a technician in de-identified coded vials. The technician that administered drug injections was blinded to treatment group. Graphs show Mean+SEM. Data are significant at p<0.05.

[6] = system: PHLPP2; settings: reported by Sierecki and colleagues; read-out: IC50 to block PHLPP2; cited from earlier work
[7] = system: pAKT473; test: pAKT473 levels in cultured primary rat cortical neurons (Western blots); format: cell-based; settings: 25 μM or 50 μM, 35 min
Description: We tested if NSC74429 also increases pAKT473 levels using our published protocol. In brief, uninjured primary rat cortical neurons were maintained in Neurobasal+B27. Prior to treatments, neurons were given a supplement starvation period by exchanging maintenance media with basic Neurobasal (i.e. minus B27), and returned to a 37° C. incubator for 2 h. Neurons were subsequently treated 35 min with DMSO, 25 μM NSC74429, or 50 μM NSC74429 (diluted in basic Neurobasal). Western blots confirm that PHLPP1 and PHLPP2 isoforms are detected in rat cortical neurons. […] PHLPP inhibitors increase pAKT473 levels but NSC74429 had the opposite effect. Moreover, inhibition of pAKT473 is expected to promote cell death yet NSC74429 (AKT inhibitor) was neuroprotective as shown in FIG. 1 and FIG. 2. […] Data were analyzed by 1-Way-ANOVA and Newman-Keuls Multiple Comparison Test. Graphs show Mean+SEM. Data are significant at p<0.05. Conclusion: Together PHLPP1 and PHLPP2 regulate the dephosphorylation of pAKT473 on AKT1, AKT2, and AKT3 isoforms.

[8] = system: Primary rat cortical neurons; test: Hydrogen peroxide (H2O2)-oxidative stress assay, cell viability by CELLTITER-BLUE; format: cell-based; settings: 40 μM H2O2 35 min, viability 24 h later
Description: as §1

[9] = system: Sprague Dawley rats; test: Adult rat asphyxia cardiac arrest (ACA), hippocampal CA1 cell survival counts; format: in vivo; settings: 1 mg/kg or 3 mg/kg, given 5 min after ROSC
Text: We tested the therapeutic efficacy of NSC74429 in a model of brain injury (ACA) in which the blood brain barrier (BBB) remains intact. Male ˜300 g Sprague Dawley rats were anesthetized on isoflurane (4% induction/2% maintenance on 50% O2/50% N2) and mechanically ventilated. The left femoral artery and vein were accessed and cannulated with heparinized-saline filled PE-50 tubing. EKG, mean arterial pressure (MAP), rectal temperature, and pectoralis temperature were continuously monitored. Body temperature was maintained to 37° C. Arterial blood gas measurements were analyzed and ventilator settings adjusted as needed to achieve normal PaO2 and PaCO2. 2 mg/kg cisatracurium was administered 5 min prior to CA to stop spontaneous breathing (i.e. neuromuscular blockage). The ventilator was disconnected. Mean arterial pressure (MAP) decreased over 2-3 min until reaching target no-flow (<10 mmHG). […] Data were analyzed by 1-Way-ANOVA and Newman-Keuls Multiple Comparison Test. […] The technician that administered drug injections, and the technician that analyzed histology, were blinded to treatment group. A single value in the vehicle-injury group (indicated by a * in the table above) was a statistical outlier as determined by the Dixon's test and was removed from statistical analysis. […]

[10] = 1 mg/kg iv then ip at 24 h, 48 h post-injury

## CN(C)CCOC(=O)c1ccc(N)cc1 [NSC25247]
[1]; 50 μM, viability 24 h later
  neuroprotection, cell viability after STS injury: mildly neuroprotective

## Nc1c(S(=O)(=O)O)cc(Nc2cccc(S(N)(=O)=O)c2)c2c1C(=O)c1ccccc1C2=O [NSC117079]
[2]
  pAKT473 levels: dose-dependently increase pAKT473 levels

## Cc1cc(N=Nc2ccc(N=Nc3ccc(O)c(C(=O)[O-])c3)cc2)c(N)cc1N.[Na+] [NSC45586]
[2]
  pAKT473 levels: dose-dependently increase pAKT473 levels

## COc1cc(NCCC2CCCCN2)c2ncccc2c1 (stereo not shown) [NSC13378]
[1]; viability 24 h later (DIV10)
  neuroprotection, cell viability after STS injury: failed to protect

## S=C(Nc1ccc2cn[nH]c2c1)Nc1ccc2cn[nH]c2c1 [NSC74429]
[3]; 1 mg/kg iv then ip at 24, 48, 72 h, 7 d post-injury
  CA1 survival: equivalent in both injured groups
[3]; 1 mg/kg iv then ip at 24, 48, 72 h, 7 d post-injury, not statistically significant
  CA3 tissue sparing, above vehicle injury: ~17.5%
[3]; [10]
  CA1 cell survival: significantly increased
  CA3 cell survival: significantly increased
[3]; 3 mg/kg high-dose group, 48 h post-injury
  hippocampal CA1/CA3 survival: bifurcated
[3]; 3 mg/kg, vs. 1 in vehicle-injury group
  mortality (animals died prior to tissue collection): 4 animals
[4]; 25 μM
  glutamate-induced neuronal death: insufficient to decrease glutamate-induced neuronal death
[4]; 50 μM
  glutamate-induced neuronal death (excitotoxic injury): reduced excitotoxic injury
[5]
  pAKT473 levels in the injured hippocampus: did not increase pAKT473 levels
[1]; 25-50 μM, viability 24 h later
  neuroprotection, cell viability after STS injury: potently neuroprotective
[6]
  IC50: 5 µM
[7]; uninjured neurons
  pmTOR2448 (other phosphorylated proteins): did not affect
[7]; uninjured neurons after 2 h supplement starvation
  pAKT473 levels: dose-dependently decreased pAKT473 levels
[8]
  cell death induced by oxidative stress: decreases cell death
[9]
  hippocampal CA1 cell survival (neuroprotection): neuroprotective
